Assay results published in patent US20140271604A1, “HDAC Inhibitor Polymorphic Forms and Methods of Use” (priority 2013, published 2014).
Blank lines part the entries; values can stand above or below the compound they belong to.

How the values were obtained:
[1] = Storage of samples under ambient conditions, form assigned by XRPD; assay type: physicochemical
[2] = Stability study in climate chamber (48-72 h, 40° C./75% RH), form assigned by XRPD; conditions: for XRPD Form c: form assigned after the stability studies / XRPD Form b: form assigned after the stability studies: at 40° C./75% RH; for XRPD Form b: form assigned after the stability studies: samples from anti-solvent addition, Table 3, label = form before stability
Protocol: Solubility assessment experiments were carried out in a variety of solvents followed by storage in a climate chamber for 48 to 72 hours at 40 degrees centigrade and 75% relative humidity.

[3] = 1-1.5 weeks ambient, cooling-evaporative crystallization, Table 6, label = form after recrystallization
[4] = 48-72 H, samples from cooling-evaporative crystallization, Table 6, label = form after recrystallization
[5] = 48-72 H, samples from slurry conversion, Table 9, label = form after slurry
[6] = 1-1.5 weeks ambient, cooling-evaporative crystallization, Table 7, label = form after recrystallization
[7] = 1.5-2 weeks ambient, solvent-drop grinding, Table 8, label = form after grinding
[8] = 46-72 H, samples from solvent-drop grinding, Table 8, label = form after grinding
[9] = 48-72 H, samples from cooling-evaporative crystallization, Table 7, label = form after recrystallization
[10] = 48 to 72 hours at 40 degrees centigrade and 75% relative humidity

Compound: CC(C)C(C(=O)Nc1ccc(C(=O)NO)cc1)c1ccccc1 (centres unmarked) [Form A2 + Am]
XRPD Form b: form assigned after storage under ambient conditions [1, 3]: Form U1 + Am | XRPD Form c: form assigned after the stability studies [2, 4]: Form Z_wet**

Compound: CC(C)C(C(=O)Nc1ccc(C(=O)NO)cc1)c1ccccc1 (centres unmarked) [Form A3 + Am]
XRPD Form c: form assigned after the stability studies [2, 5]: Form A

Compound: CC(C)C(C(=O)Nc1ccc(C(=O)NO)cc1)c1ccccc1 (centres unmarked) [Form A7 + Am]
XRPD Form b: form assigned after storage under ambient conditions ([1]; 1-1.5 weeks ambient, slurry conversion, Table 9, label = form after slurry): Form A3 + Am* | XRPD Form c: form assigned after the stability studies [2, 5]: Form A + Am*

Compound: CC(C)C(C(=O)Nc1ccc(C(=O)NO)cc1)c1ccccc1 (centres unmarked) [Form A + Form F1]
XRPD Form b: form assigned after storage under ambient conditions [1, 7]: Form A | XRPD Form c: form assigned after the stability studies [2, 8]: Form A

Compound: CC(C)C(C(=O)Nc1ccc(C(=O)NO)cc1)c1ccccc1 (centres unmarked) [Form A + Form H1]
XRPD Form b: form assigned after the stability studies ([2]; 48-72 H): Form A

Compound: CC(C)C(C(=O)Nc1ccc(C(=O)NO)cc1)c1ccccc1 (centres unmarked) [Form A + Form J1]
XRPD Form c: form assigned after the stability studies [2, 9]: Form J1

Compound: CC(C)C(C(=O)Nc1ccc(C(=O)NO)cc1)c1ccccc1 (centres unmarked) [Form A + Form V]
XRPD Form b: form assigned after storage under ambient conditions [1, 7]: Form A | XRPD Form c: form assigned after the stability studies [2, 8]: Form A

Compound: CC(C)[C@H](C(=O)Nc1ccc(C(=O)NO)cc1)c1ccccc1 [Form A_min + Form T]
XRPD Form c: form assigned after the stability studies [2, 8]: Form A5a

Compound: CC(C)[C@H](C(=O)Nc1ccc(C(=O)NO)cc1)c1ccccc1 [Form A_minus, (S)—N-hydroxy-4-(3-methyl-2-phenylbutanamido)benzamide]
XRPD Form b: form assigned after the stability studies ([2]; 48-72 H): Form A_minus | Stability after storage in a climate chamber [2, 10]: exhibited a particular degree of stability

Compound: CC(C)C(C(=O)Nc1ccc(C(=O)NO)cc1)c1ccccc1 (centres unmarked) [Form B1 + Form F5]
XRPD Form b: form assigned after the stability studies ([2]; 48-72 H): Form A

Compound: CC(C)[C@H](C(=O)Nc1ccc(C(=O)NO)cc1)c1ccccc1 [Form D1_wet]
XRPD Form b: form assigned after storage under ambient conditions [1, 3]: Form D1_wet** | XRPD Form b: form assigned after storage under ambient conditions [1, 6]: Form D1_wet | XRPD Form b: form assigned after the stability studies ([2]; 48-72 H): Form D2 | XRPD Form c: form assigned after the stability studies [2, 4]: Form A_wet** | XRPD Form c: form assigned after the stability studies [2, 9]: Form A + Am*

The next lines start with results.

XRPD Form b: form assigned after the stability studies ([2]; 48-72 H): Form A
Compound: CC(C)[C@H](C(=O)Nc1ccc(C(=O)NO)cc1)c1ccccc1 [Form A2, (S)—N-hydroxy-4-(3-methyl-2-phenylbutanamido)benzamide]

XRPD Form b: form assigned after storage under ambient conditions [1, 6]: Form L2 | XRPD Form b: form assigned after storage under ambient conditions [1, 7]: Form A | XRPD Form c: form assigned after the stability studies [2, 8]: Form A
Compound: CC(C)[C@H](C(=O)Nc1ccc(C(=O)NO)cc1)c1ccccc1 [Form A3, (S)—N-hydroxy-4-(3-methyl-2-phenylbutanamido)benzamide]

XRPD Form b: form assigned after storage under ambient conditions ([1]; 1-1.5 weeks ambient, cooling-evaporative crystallization, Table 7, label = form after recrystallization, slurry in cyclohexane/cyclohexanone): Form B1_wet** | XRPD Form b: form assigned after storage under ambient conditions ([1]; 1-1.5 weeks ambient, cooling-evaporative crystallization, Table 7, label = form after recrystallization, slurry in cyclohexanone/tetrahydrofuran): Form R | XRPD Form c: form assigned after the stability studies [2, 9]: Form A
Compound: CC(C)[C@H](C(=O)Nc1ccc(C(=O)NO)cc1)c1ccccc1 [Form A4, (S)—N-hydroxy-4-(3-methyl-2-phenylbutanamido)benzamide]

XRPD Form b: form assigned after storage under ambient conditions [1, 7]: Form A5a | XRPD Form c: form assigned after the stability studies [2, 8]: Form A5a | XRPD pattern following storage exposure in the climate chamber [2, 10]: remained unchanged
Compound: CC(C)[C@H](C(=O)Nc1ccc(C(=O)NO)cc1)c1ccccc1 [Form A5a, (S)—N-hydroxy-4-(3-methyl-2-phenylbutanamido)benzamide]
Stability after storage in a climate chamber [2, 10]: exhibited a particular degree of stability

XRPD Form b: form assigned after storage under ambient conditions [1, 6]: Form A7 | XRPD Form c: form assigned after the stability studies [2, 9]: Form A_plus
Compound: CC(C)[C@H](C(=O)Nc1ccc(C(=O)NO)cc1)c1ccccc1 [Form A7, (S)—N-hydroxy-4-(3-methyl-2-phenylbutanamido)benzamide]

XRPD Form b: form assigned after storage under ambient conditions [1, 6]: Form A8 | XRPD Form c: form assigned after the stability studies [2, 9]: Form A
Compound: CC(C)[C@H](C(=O)Nc1ccc(C(=O)NO)cc1)c1ccccc1 [Form A8, (S)—N-hydroxy-4-(3-methyl-2-phenylbutanamido)benzamide]
